The data set deals with intraoperative bleeding in a patient suffering from diabetic retinopathy with increased intrinsic coagulation tendency. As to the kind of experiment: Systemic drip infusion of argatroban during ophthalmic operation in a patient with diabetic retinopathy (Example 1). The class given is in vivo. The note with it: one patient. As to the method:
The present invention will be more specifically explained by referring to an example. However, as for as within the gist of the present invention, the present invention is not limited to the following example. As argatroban in the following example, a drug commercially available as the tradename “Slonnon” was used.
The patient was a youth suffering from diabetic retinopathy with increased intrinsic coagulation tendency. […] Argatroban 10 mg as one ample was added to a drip infusion (specify ingredients, and a tradename and name of a manufacturing company if commercially available) and systemically administered to the patient from the beginning of the operation. The operation was completed for 2 hours.
The above patient was a youth suffering from diabetic retinopathy with increased intrinsic coagulation tendency, and if treated under an ordinary operation, intraoperative bleedings would have expected to be easy clotting and caused operative difficulties.

The mark [1] stands for this setting: argatroban 10 mg drip infusion during operation.

`CC1CNc2c(cccc2S(=O)(=O)NC(CCCNC(=N)N)C(=O)N2CCC(C)CC2C(=O)O)C1` (mixture of isomers) [argatroban, (2R,4R)-4-methyl-1-[N^2((RS)-3-methyl-1,2,3,4-tetrahydro-8-quinolinesulfonyl)-L-arginyl]-2-piperidinecarboxylic acid monohydrate]: under setting [1], the abnormal bleeding tendency result is “No abnormal bleeding tendency was not observed” and the “ease of treatment of intraoperative bleeding” value is “treatment of intraoperative bleeding became easier”. For the same compound, the “removal of intraoperative bleedings” value (argatroban 10 mg drip infusion, passive suction using a back flash needle) is “successfully removed by passive suction using a back flash needle”. Besides, the “preretinal clotting mass formation from intraoperative bleedings” value (argatroban 10 mg in drip infusion, systemic, from beginning of operation, 2 hour operation, treatment of fibrous vascular proliferating membrane) was “all of the bleedings did not give preretinal clotting mass”. Moreover, the intraoperative iatrogenic tear entry (during treatment of fibrous vascular proliferating membrane, argatroban 10 mg drip infusion) is “no intraoperative iatrogenic tear was caused”.

(Values after patent US20030114388A1, “Auxiliary agents for ophthalmic operation” (priority 2000, published 2003).)
